pIC50: −log10 of the molar value.
Key:
[1] = system: zfGPCR (dual zfGLP-1R/GCGR); experiment: Competitive binding, displacement of 125I-hGLP-1(7–36)amide from recombinant zfGPCR expressed in COS-7 cells; set-up: species or system zebrafish (Danio rerio); conditions: 125I-hGLP-1(7–36)amide tracer, intact COS-7 cells, 16–18 h at 4°C, triplicate wells; NSB with 1 μM peptide; n = 3 hGLP-1, n = 2 zf glucagon, exendin-4, exendin(9–39), n = 1 zfGLP-1. 95% CI: zfGLP-1 1.2–3.6; hGLP-1 0.98–13; zf glucagon 1.4–4.0; exendin-4 0.24–0.92; exendin(9–39) 2.4–14
Experimental: Competitive binding experiments were performed with the recombinant zfGPCR expressed in COS-7 cells, as described previously. Transient transfections of pcDNA3 vector containing recombinant zfGPCR into COS-7 cells were performed as described below for the stimulation of intracellular cAMP. Cells were grown in 100-mm plates to confluence and 24 hr after transfection they were trypsinized and transferred to 24 well plates (Biocore, Becton Dickinson). 24–48 hr later each peptide (pM to μM) was added in triplicate wells followed by the addition of an aliquot (100,000 cpm/well) of either ^125I-hGLP-1(7–36)amide or ^125I-exendin(9–39) (each radioactive peptide tracer at […] receptor grade, NEN Life Science Products, Boston, MA). Peptides, radioiodinated ^125I-tracer and cells were incubated for 16–18 h at 4°C. After incubation cells were washed twice with ice-cold PBS, lysed with 1N NaOH and radioactivity measured in a γ-counter. A single dose-displacement curve for each peptide was obtained in a single 24-well plate.
Dose-response curves for zfGLP-1, zfGLP-2 and zebrafish PACAP-38 were obtained from one transfection. […] Lower rounds of transfections were performed in experiments that replicated our published results from the competitive binding experiments with the displacement of ^125I-hGLP-1(7–36)amide binding to zfGPCR [41] and thus represented positive controls for these studies.
IC50 values represent an average of n experiments as described above and were calculated by the Prism 4 software. Displacement curves from the competitive binding experiments were plotted by Origin 9 software (OriginLab). Error bars are shown for data points in the displacement curves obtained in two or more rounds of transfections.
Results from the functional experiments with recombinant zfGPCR transiently expressed in COS-7 cells were analyzed by the Prism 4 software using a four-parameter logistic sigmoidal curve fit model. Data points represent mean +/- SEM.
They are shown together with the 95% confidence intervals (CIs). […]

[2] = system: hGLP-1R mutant Ser155 to alanine; conditions: Ser152 in hGCGR = Ser155 in hGLP-1R, mutated to alanine; cited from earlier work
Excerpt: Among those are TM1-TM7 interaction between Ser152^1.50 and Ser 390^7.47 in which Ser152^1.50 in TM1 in hGCGR forms a hydrogen bond with the backbone of Ser390^7.47 in TM7.

[3] = system: hGLP-1R mutant Asn318 to alanine; set-up: method as in PMID 23479653; conditions: Asn318 mutated to alanine, cell surface expression unchanged; cited from earlier work
GLP-1R = conditions: cited from earlier work
Excerpt: Receptors for GLP-1 (GLP-1R) and glucagon (GCGR) belong to the class B GPCRs that mediate the physiological effects of the peptides within the glucagon-secretin peptide family. Their structures are characterized by large amino terminal extracellular domains which are about 140 amino acids long and an intracellular core consisting of a cytoplasmic domain and seven transmembrane helices (7TMs) connected through three extracellular and three intracellular loops.

exendin-4: peptide exclusively found in the saliva of a lizard; agonist of GLP-1R; purchased from Bachem
pIC50 [1]: 9.32
receptor affinity [2]: small reduction of receptor affinity
receptor affinity [3]: reduced the receptor’s affinity
stimulation of intracellular cAMP, GLP-1 vs exendin-4 (GLP-1R): to a similar degree

From article PMC5145181, “Structural Mapping and Functional Characterization of Zebrafish Class B G-Protein Coupled Receptor (GPCR) with Dual Ligand Selectivity towards GLP-1 and Glucagon” (PLoS ONE, 2016)
